Legend:
PXR = biological target: T1, PXR (Homo sapiens, UniProt O75469); assay: PXR reporter (p3A4-luc luciferase) assay in LS180 cells transiently transfected with wild-type PXR; settings: for fold induction at 0.001 µM / fold induction at 0.01 µM / fold induction at 0.1 µM / fold induction at 1 µM / fold induction at 10 µM / fold induction at 25 µM: LS180, read-out: FOLD INDUCTION of PXR reporter luciferase activity; for FOLD INDUCTION of PXR reporter luciferase activity: 24 h, over UT
T1 sequence (O75469 1-434): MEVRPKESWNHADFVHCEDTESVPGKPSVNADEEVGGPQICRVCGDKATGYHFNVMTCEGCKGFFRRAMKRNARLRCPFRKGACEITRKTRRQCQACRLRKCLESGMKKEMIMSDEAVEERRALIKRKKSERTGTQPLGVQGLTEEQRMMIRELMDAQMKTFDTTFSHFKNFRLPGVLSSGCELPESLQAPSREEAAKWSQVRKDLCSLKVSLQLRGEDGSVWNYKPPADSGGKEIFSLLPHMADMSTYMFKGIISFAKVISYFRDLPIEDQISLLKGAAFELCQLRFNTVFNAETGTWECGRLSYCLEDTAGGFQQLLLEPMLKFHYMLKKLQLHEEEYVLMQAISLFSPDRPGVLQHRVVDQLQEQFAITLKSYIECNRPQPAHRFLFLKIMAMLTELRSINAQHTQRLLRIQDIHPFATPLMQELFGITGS
Procedure: Incubations were performed in four technical replicates. After the treatments, cells were lysed and luciferase activity was measured on Tecan Infinite M200 Pro plate reader (Schoeller Instruments, Prague, Czech Republic). The data are expressed as fold induction ± SD of luciferase activity over the control cells (agonistic mode—in the absence of a model ligand) or as a percentage of maximal activation ± SD (antagonistic mode—in the presence of a model ligand). […] For all the transfection experiments, specifically multiplexed transfections, the control wells were mock‐transfected ([…]). However, to exclude non‐specific binding of PXR (or other factors) upstream of the luciferase gene within non‐PXR‐binding elements, we performed pilot experiments in different cell passages (P11, P14, and P17) of LS174T cells using a mock luciferase plasmid (luciferase not containing an upstream PXR‐binding element of the CYP3A4 promoter).

[1] = tested on: PXR target genes in LS174T PXR-KO cells; assay: PXR target gene mRNA in LS174T PXR-KO cells; format: cell-based, human
Procedure: Figure EV5 LS174T PXR‐knockout (KO) cells are not responsive to PXR ligands • Expression of CYP1A1 and CYP3A4 mRNA in PXR‐knockout and wild‐type LS174T. […] Experiment was performed in 4 independent cell passages (6th, 8th, 10th, and 12th). The mRNA expression of CYP1A1 and CYP3A4 mRNA was determined by RT–PCR, and data were normalized to GAPDH mRNA level. (a) CYP1A1 mRNA. (b) CYP3A4 mRNA. Data are expressed as mean ± SD. • Immunoblot for PXR protein expression in PXR wild‐type and knockout (KO) cells. Experiment was performed in nine independent cell passages (P). • Fold mRNA expression of PXR target genes. Each tissue PCR was repeated in quadruplicate. The expression was normalized to internal control, GAPDH. The entire experiment was repeated n > 2 for reproducibility. The data shown are one representative experiment. Source data are available online for this figure.
Briefly, cells were first tested negative for mycoplasma.

AhR = biological target: T2, AhR (Homo sapiens, UniProt P35869); assay: AhR reporter assay, HepG2 cells stably expressing pCYP1A1 luciferase (AZ-AHR); format: cell-based; settings: AZ-AHR cells, fold vs DMSO; for fold induction at 24 h, 0.001 µM / fold induction at 24 h, 0.01 µM / fold induction at 24 h, 0.1 µM / fold induction at 24 h, 1 µM / fold induction at 24 h, 10 µM: human
T2 construct: endogenous in cells; host or cells: AZ-AHR (HepG2)
T2 sequence (P35869 11-848): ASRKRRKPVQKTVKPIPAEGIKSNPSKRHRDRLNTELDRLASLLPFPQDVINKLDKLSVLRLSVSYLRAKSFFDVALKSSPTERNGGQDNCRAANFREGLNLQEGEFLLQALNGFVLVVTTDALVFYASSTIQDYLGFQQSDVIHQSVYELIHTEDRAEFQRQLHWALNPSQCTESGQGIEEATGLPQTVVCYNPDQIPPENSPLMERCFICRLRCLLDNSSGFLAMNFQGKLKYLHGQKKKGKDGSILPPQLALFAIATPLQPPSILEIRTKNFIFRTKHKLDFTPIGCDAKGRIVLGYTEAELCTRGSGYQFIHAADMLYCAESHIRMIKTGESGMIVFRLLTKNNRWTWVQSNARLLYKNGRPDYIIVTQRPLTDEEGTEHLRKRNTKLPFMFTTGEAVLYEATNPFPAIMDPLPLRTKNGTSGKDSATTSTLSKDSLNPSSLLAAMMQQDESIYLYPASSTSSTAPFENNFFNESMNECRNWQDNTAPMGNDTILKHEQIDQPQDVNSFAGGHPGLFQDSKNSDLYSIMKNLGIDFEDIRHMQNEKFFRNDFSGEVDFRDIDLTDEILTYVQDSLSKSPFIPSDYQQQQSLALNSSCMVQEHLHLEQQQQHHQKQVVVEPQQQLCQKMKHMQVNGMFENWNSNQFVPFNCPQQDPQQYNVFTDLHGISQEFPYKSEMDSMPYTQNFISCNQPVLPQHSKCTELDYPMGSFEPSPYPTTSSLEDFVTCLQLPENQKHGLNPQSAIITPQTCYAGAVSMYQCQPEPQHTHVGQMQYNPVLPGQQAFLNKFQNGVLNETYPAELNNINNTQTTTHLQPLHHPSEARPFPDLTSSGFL
Procedure: Incubations were performed in four technical replicates.

Compound	aver (mean luciferase signal of H1-H4) (PXR; 1 nM)	aver (mean luciferase signal of H1-H4) (PXR; 10 nM)	aver (mean luciferase signal of H1-H4) (PXR; 100 nM)	aver (mean luciferase signal of H1-H4) (PXR; 1 uM)	aver (mean luciferase signal of H1-H4) (PXR; 10 uM)	aver (mean luciferase signal of H1-H4) (PXR; 25 uM)	fold induction at 0.001 µM (PXR)	fold induction at 0.01 µM (PXR)	fold induction at 0.1 µM (PXR)	fold induction at 1 µM (PXR)	fold induction at 10 µM (PXR)	fold induction at 25 µM (PXR)	PXR target gene induction [1]	fold induction at 24 h, 0.001 µM (AhR; 1 nM)	fold induction at 24 h, 0.01 µM (AhR; 10 nM)	fold induction at 24 h, 0.1 µM (AhR; 100 nM)	fold induction at 24 h, 1 µM (AhR; 1µM)	fold induction at 24 h, 10 µM (AhR; 10 µM)	other results
C#CCC(O)(c1ccncc1)c1cc2ccccc2n1S(=O)(=O)c1ccccc1 (stereo not drawn) [FKK6]	5692.0	9322.0	9089.3	73854.3	113299.3	99812.0	1.8	2.9	2.8	23.1	35.5	31.3	did not induce	0.8	0.7	0.8	1.1	3.2	PXR activation (in words) (PXR; cell-based transactivation): activated human PXR
O=S(=O)(c1ccccc1)n1c(C(O)c2ccncc2)cc2ccccc21 (racemic) [FKK1]	3470.0	3768.8	3738.8	28708.8	56319.0	51971.3	–	–	–	–	–	–	–	–	–	–	–	–	FOLD INDUCTION of PXR reporter luciferase activity (PXR; 1 nM): 1.6 fold; FOLD INDUCTION of PXR reporter luciferase activity (PXR; 10 nM): 1.8 fold; FOLD INDUCTION of PXR reporter luciferase activity (PXR; 100 nM): 1.7 fold; FOLD INDUCTION of PXR reporter luciferase activity (PXR; 1 uM): 13.4 fold; FOLD INDUCTION of PXR reporter luciferase activity (PXR; 10 uM): 26.3 fold; FOLD INDUCTION of PXR reporter luciferase activity (PXR; 25 uM): 24.3 fold; FOLD INDUCTION (AZ-AHR luciferase) (AhR; 1 nM): 0.7 fold; FOLD INDUCTION (AZ-AHR luciferase) (AhR; 10 nM): 0.746 fold; FOLD INDUCTION (AZ-AHR luciferase) (AhR; 100 nM): 1.1 fold; FOLD INDUCTION (AZ-AHR luciferase) (AhR; 1µM): 0.9 fold; FOLD INDUCTION (AZ-AHR luciferase) (AhR; 10 µM): 2.8 fold
O=C(c1ccncc1)c1cc2ccccc2n1S(=O)(=O)c1ccccc1 [FKK5, (1-(phenylsulfonyl)-1H-indol-2-yl)(pyridin-4-yl)methanone]	4417.0	4539.3	4741.5	29157.3	116028.0	119010.3	1.4	1.4	1.5	9.1	36.4	37.3	did not induce	0.755	0.8	0.7	0.7	1.2	–

Reference: PMC7136958, “Targeting the pregnane X receptor using microbial metabolite mimicry” (EMBO Molecular Medicine, 2020)
